Measured values reported in patent US7396837B2, “Antitumoral analogs of lamellarins” (Pharma Mar, S.A.U., priority 2002, dated 2008).

Key:
Format in all cases: cell-based
SK-BR-3 = test: SRB colorimetric cell growth inhibition assay, SK-BR-3; conditions: Homo sapiens, SK-BR-3, SK-BR-3
Method in brief: (§1)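 Sulforhodamine B colorimetric readout measured cell growth and viability after continuous compound exposure of human cancer cell lines in 96-well plates. Triplicate wells gave mean ± SD, from which growth inhibition (GI), cytostatic total growth inhibition (TGI) and cytotoxic cell killing (LC) were calculated.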

DU-145 = test: SRB colorimetric cell growth inhibition assay, DU-145; conditions: Homo sapiens, DU-145, DU-145
Method in brief: as §1

HeLa-APL = test: SRB colorimetric cell growth inhibition assay, HeLa-APL (aplidine resistant); conditions: Homo sapiens, HELA-APL
Method in brief: as §1

K-562 = test: SRB colorimetric cell growth inhibition assay, K-562; conditions: Homo sapiens, K562, K-562
Method in brief: as §1

IGROV-ET = test: SRB colorimetric cell growth inhibition assay, IGROV-ET (ET-743 resistant); conditions: Homo sapiens, IGROV-ET
Method in brief: as §1

LNCaP = test: SRB colorimetric cell growth inhibition assay, LNCaP; conditions: Homo sapiens, LNCaP, LN-caP
From the text: The finality of these assays is to interrupt the growth of an “in vitro” tumor cell culture by means a continued exhibition of the cells to the sample to be testing.
A colorimetric type of assay, using sulforhodamine B (SRB) reaction has been adapted for a quantitative measurement of cell growth and viability (following the technique described by P. A. Skehan, et al., J. Natl. Cancer Inst. 1990, 82, 1107-1112).
This form of assay employs 96 well cell culture microplates of 9 mm diameter (T. Mosmann et al., J. of Immunological Methods 1983, 65, 55-63; G. T. Faircloth et al., J. of Tissue and Culture Methods 1988, 11, 201-205).
Most of the cell lines are obtained from American Type Culture Collection (ATCC) derived from different human cancer types.
The values for mean +/− SD of data from triplicate wells are calculated. Some parameters for cellular responses can be calculated: GI=growth inhibition, TGI=total growth inhibition (cytostatic effect) and LC=cell killing (cytotoxic effect).

PANC-1 = test: SRB colorimetric cell growth inhibition assay, PANC-1; conditions: Homo sapiens, PANC-1, PANC-1
Method in brief: as §1

IGROV = test: SRB colorimetric cell growth inhibition assay, IGROV; conditions: Homo sapiens, IGROV
Method in brief: as §1

LoVo = test: SRB colorimetric cell growth inhibition assay, LoVo; conditions: Homo sapiens, LoVo
Method in brief: as §1

HT-29 = test: SRB colorimetric cell growth inhibition assay, HT-29; conditions: Homo sapiens, HT-29, HT-29
Method in brief: as §1

LoVo-Dox = test: SRB colorimetric cell growth inhibition assay, LoVo-Dox (MDR); conditions: Homo sapiens, LOVO-DOX
Method in brief: as §1

HeLa = test: SRB colorimetric cell growth inhibition assay, HeLa; conditions: Homo sapiens, HeLa
Method in brief: as §1

SK-MEL-28 = test: SRB colorimetric cell growth inhibition assay, SK-MEL-28; conditions: Homo sapiens, SK-MEL-28, MEL-28
Method in brief: as §1

A-549 = test: SRB colorimetric cell growth inhibition assay, A-549; conditions: Homo sapiens, A549, A-549
Method in brief: as §1

`COc1cc(-c2c3c4cc(OC)c(OC(=O)CCc5ccccc5)cc4oc(=O)c3n3ccc4cc(OC(=O)CCc5ccccc5)c(OC)cc4c23)ccc1OC(=O)CCc1ccccc1` [Compound 8] showed a GI50 (SK-BR-3; GI=growth inhibition, read-out: GI50 SK-BR-3) of 0.915 µM, a CC50 (SK-BR-3; cell killing (cytotoxic effect), read-out: LC50 SK-BR-3) of 9.19 µM and an IC (TGI) (SK-BR-3; total growth inhibition (cytostatic effect), read-out: TGI SK-BR-3) of 3.04 µM. It also gave a GI50 (DU-145; GI=growth inhibition, read-out: GI50 DU-145) of 0.703 µM, a CC50 (DU-145; cell killing (cytotoxic effect), read-out: LC50 DU-145) of 9.43 µM and an IC (TGI) (DU-145; total growth inhibition (cytostatic effect), read-out: TGI DU-145) of 2.6 µM. It also gave a GI50 (HeLa-APL; GI=growth inhibition, read-out: GI50 HELA-APL) of 7.3 µM, a CC50 (HeLa-APL; cell killing (cytotoxic effect), read-out: LC50 HELA-APL) of 11.2 µM and an IC (TGI) (HeLa-APL; total growth inhibition (cytostatic effect), read-out: TGI HELA-APL) of 11.2 µM. It also gave a GI50 (K-562; GI=growth inhibition, read-out: GI50 K-562) of 0.225 µM, a CC50 (K-562; cell killing (cytotoxic effect), read-out: LC50 K-562) of 7.49 µM and an IC (TGI) (K-562; total growth inhibition (cytostatic effect), read-out: TGI K-562) of 1.57 µM. It also gave a GI50 (IGROV-ET; GI=growth inhibition, read-out: GI50 IGROV-ET) of 3.35 µM, a CC50 (IGROV-ET; cell killing (cytotoxic effect), read-out: LC50 IGROV-ET) of 11.2 µM and an IC (TGI) (IGROV-ET; total growth inhibition (cytostatic effect), read-out: TGI IGROV-ET) of 11.2 µM. For the same molecule, the GI50 (LNCaP; GI=growth inhibition, read-out: GI50 LN-caP) was 0.654 µM, the CC50 (LNCaP; cell killing (cytotoxic effect), read-out: LC50 LN-caP) was 7.21 µM and the IC (TGI) (LNCaP; total growth inhibition (cytostatic effect), read-out: TGI LN-caP) was 2.47 µM. The GI50 (PANC-1; GI=growth inhibition, read-out: GI50 PANC-1) was 0.231 µM, the CC50 (PANC-1; cell killing (cytotoxic effect), read-out: LC50 PANC-1) was 11.2 µM and the IC (TGI) (PANC-1; total growth inhibition (cytostatic effect), read-out: TGI PANC-1) was 0.865 µM. For the same molecule, the GI50 (IGROV; GI=growth inhibition, read-out: GI50 IGROV) was 0.445 µM, the CC50 (IGROV; cell killing (cytotoxic effect), read-out: LC50 IGROV) was 11.2 µM and the IC (TGI) (IGROV; total growth inhibition (cytostatic effect), read-out: TGI IGROV) was 2.17 µM. For the same molecule, the GI50 (LoVo; GI=growth inhibition, read-out: GI50 LOVO) was 1.48 µM, the CC50 (LoVo; cell killing (cytotoxic effect), read-out: LC50 LOVO) was 11.2 µM and the IC (TGI) (LoVo; total growth inhibition (cytostatic effect), read-out: TGI LOVO) was 4.68 µM. It also gave a GI50 (HT-29; GI=growth inhibition, read-out: GI50 HT-29) of 0.377 µM, a CC50 (HT-29; cell killing (cytotoxic effect), read-out: LC50 HT-29) of 11.2 µM and an IC (TGI) (HT-29; total growth inhibition (cytostatic effect), read-out: TGI HT-29) of 11.2 µM. It also gave a GI50 (LoVo-Dox; GI=growth inhibition, read-out: GI50 LOVO-DOX) of 8.34 µM, a CC50 (LoVo-Dox; cell killing (cytotoxic effect), read-out: LC50 LOVO-DOX) of 11.2 µM and an IC (TGI) (LoVo-Dox; total growth inhibition (cytostatic effect), read-out: TGI LOVO-DOX) of 11.2 µM. For the same molecule, the GI50 (HeLa; GI=growth inhibition, read-out: GI50 HELA) was 0.276 µM, the CC50 (HeLa; cell killing (cytotoxic effect), read-out: LC50 HELA) was 7.92 µM and the IC (TGI) (HeLa; total growth inhibition (cytostatic effect), read-out: TGI HELA) was 1.41 µM. It also gave a GI50 (SK-MEL-28; GI=growth inhibition, read-out: GI50 MEL-28) of 0.407 µM, a CC50 (SK-MEL-28; cell killing (cytotoxic effect), read-out: LC50 MEL-28) of 11.2 µM and an IC (TGI) (SK-MEL-28; total growth inhibition (cytostatic effect), read-out: TGI MEL-28) of 2.2 µM. It also gave a GI50 (A-549; GI=growth inhibition, read-out: GI50 A-549) of 0.744 µM, a CC50 (A-549; cell killing (cytotoxic effect), read-out: LC50 A-549) of 11.2 µM and an IC (TGI) (A-549; total growth inhibition (cytostatic effect), read-out: TGI A-549) of 6.34 µM.
